The source of these data is ChEMBL document CHEMBL1126351, “()-7-deazacarbovir as a compound with potential anti-hiv and anti-hcmv properties” (Bioorg Med Chem Lett, 1992).

One may read the EC50 as the midpoint of the concentration-response curve. Higher therefore signals a less potent agent. What is called IC50 is the concentration needed to halve the response being measured. Low readings indicate greater potency in that assay, high ones weaker potency in that assay.

The subject of the assay is HFF. The experiment in a line: Compound was evaluated for CPE inhibition using anti-HCMV assay in AD169 strain infected HFF cells. The format is functional, cell-based. As to conditions: Homo sapiens.

On to `Nc1nc(O)c2ccn(C3C=CC(CO)C3)c2n1` (configuration not stated), for which the response was half-maximal at 350 µM (EC50) and the IC50 is over 410 µM.
